From PMC6326535, “Total Synthesis of Xanthoangelol B and Its Various Fragments: Toward Inhibition of Virulence Factor Production of Staphylococcus aureus” (Journal of Medicinal Chemistry, 2018)
Like-named read-outs stand apart in the source and are kept apart here.

Key:
SaeRS TCS = test: microbe, parasite or virus in culture; type: cell-based, Staphylococcus aureus USA300; conditions: for inhibition of the SaeRS TCS: at 20 μM; for IC50 / IC90: Staphylococcus aureus; for IC50: USA300, 8 h, read-out: IC50 against the SaeRS GFP reporter; for IC90: read-out: IC90 for the SaeRS GFP reporter
Gram-positive bacteria = conditions: cited from earlier work
[1] = parameters: method as in PMID 22452965; conditions: mice, single dose study; cited from earlier work
HeLa cells [2] = test: LDH release cytotoxicity assay; type: cell-based; conditions: for IC50: Homo sapiens, HeLa, 72 h, read-out: IC50 for HeLa cell survival
[3] = system: methicillin-resistant S. aureus USA300; test: cells; type: cell-based, Staphylococcus aureus
kinase domain of SaeS = kinase domain of SaeS (Staphylococcus aureus, UniProt Q840P7); test: biochemical
Procedure: Next, we attempted to measure the direct binding of 1 and PM-56 with SaeS using the intrinsic fluorescence quenching assay. Since SaeS contains seven Tyr (and zero Trp) residues, the Tyr fluorescence at 306 nm was monitored before and after binding of 1 and PM-56. The reduction of fluorescence upon ligand binding was expressed as the percent fluorescence quenching, and the Kd value was calculated by nonlinear regression fitting (Figure S9).
Purified recom binant SaeS (1 µM ) w as incubated w ith various concentrations
of ei t her (A ) 1 or (B ) PM-56 for 15 m in at room tem perature. U pon excitation at 276 nm,
reductions of SaeS intensities at an emission peak of 306 nm w ere recorded and plotted against the
chem ical concentrations. D ata points were averaged from three independent m easurem ents and
expressed as m eans (dots) ± standard deviations of m eans (w hiskers). Solid lines represent the […]
The intrinsic fluorescence quenching assay to determine the binding affinities of […]
fluorescence of t h e kinase dom ain of SaeS w as recorded at an emission peak of 306 nm upon […]
Eclipse fluorescence spectrophotom eter (A gilent Technologies, U SA ). […]
chem icals but w ithout SaeS w ere used as blanks for correcting the fluorescence intensities. […]
by plotting the reductions of SaeS fluorescence intensity at each chem ical treatm ent against the […]

[4] = biological target: SaeS phosphotransferase (PT) activity (Staphylococcus aureus, UniProt Q840P7); type: biochemical; conditions: radioactively phosphorylated SaeS in the presence of SaeR
S. aureus USA300 [5] = conditions: for growth of S. aureus: at (up to) 64 μM, up to 20 h; for bacterial growth: 8 h
Procedure: Figure 1 Various concentrations of compounds were used to treat the USA300-Phlam GFP strain, and GFP expression was analyzed at 8 h. […] All the experiments were performed in triplicates, and significance was compared with control (no treatment) using one-way ANOVA.
56 at the concentration in the range from 2 μM to 64 μM. The cell density w as m onitored as the
optical density at 600 nm.
B act eri al growt h for 8 h i n t he presence of PM-56; C, B acterial growth for 20 h in the presence of
xant hoangel ol B 1; D, B act eri al growt h for 20 hours i n t he presence of PM-56. All the experi m ents
were perform ed in triplicates.

saeS knockout S. aureus = type: in vivo, Galleria mellonella; conditions: for reduction in CFU compared to the wild type infection group: saeS knockout infection, after 72 h
HeLa cells [6] = system: HeLa cells
[7] = system: hla, aur, γ-hemolysin, staphylokinase, sarA; type: cell-based, Staphylococcus aureus
S. aureus USA300 [8] = type: in vivo, Galleria mellonella; conditions: 72 h; for survival compared to the vehicle control: 5 × 10^6 CFU
S. aureus USA300 [9] = type: in vivo, Galleria mellonella; conditions: for bacterial burden compared to the vehicle control: dose of approximately 1 mg/kg
[10] = biological target: minimal kinase domain of SaeS (Staphylococcus aureus, UniProt Q840P7); test: biochemical
AgrC = AgrC (Staphylococcus aureus, UniProt O07911); type: biochemical; conditions: for IC50: 5 μM protein, autokinase activity
[11] = biological target: minimal kinase domain of SaeS / MBP-SaeS (Staphylococcus aureus, UniProt Q840P7); type: binding; conditions: 1.0 mM compound, 0.1 mM SaeS or 30 μM MBP-SaeS
[12] = Staphylococcus aureus, USA300, Erythrocyte, 8 h, read-out: IC50 for the inhibition of erythrocyte hemolysis, human RBCs, 8 h incubation of USA300 with compound
[13] = read-out: IC50 for the inhibition of erythrocyte hemolysis, human RBCs, 8 h incubation of USA300 with compound

Sequence of minimal kinase domain of SaeS (Q840P7 118-351): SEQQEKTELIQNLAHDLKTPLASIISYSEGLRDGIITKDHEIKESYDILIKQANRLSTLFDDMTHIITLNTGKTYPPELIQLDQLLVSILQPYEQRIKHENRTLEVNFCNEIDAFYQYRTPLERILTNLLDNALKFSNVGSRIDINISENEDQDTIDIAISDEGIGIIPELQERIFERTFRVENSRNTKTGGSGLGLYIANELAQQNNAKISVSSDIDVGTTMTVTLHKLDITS
Sequence of AgrC (O07911 206-430 limits assumed): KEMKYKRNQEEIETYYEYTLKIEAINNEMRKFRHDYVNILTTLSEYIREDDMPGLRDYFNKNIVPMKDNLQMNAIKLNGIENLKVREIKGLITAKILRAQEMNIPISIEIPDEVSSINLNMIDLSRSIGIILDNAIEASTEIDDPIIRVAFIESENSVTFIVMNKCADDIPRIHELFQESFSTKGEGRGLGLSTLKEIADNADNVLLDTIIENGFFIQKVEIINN
Sequence of kinase domain of SaeS (Q840P7 118-351): as the sequence (Q840P7 118-351) above
Sequence of SaeS phosphotransferase (PT) activity (Q840P7 118-351): as above
Sequence of minimal kinase domain of SaeS / MBP-SaeS (Q840P7 118-351): as above

Molecule | inhibition of the SaeRS TCS (SaeRS TCS) | antibacterial activity against Gram-positive bacteria (Gram-positive bacteria) | cytotoxicity IC50 relative to IC50 for the GFP-reporter inhibition (HeLa cells [2]) [fold] | IC50 (HeLa cells [2]) [µM] | IC50 [3, 12] [µM] | protection from hemolysis ([3]; at 4 μM) | protection from hemolysis ([3]; at 8 μM) | IC50 [3, 13] [µM] | Kd (kinase domain of SaeS) [µM] | inhibitory activity against SaeRS (SaeRS TCS) | IC50 (SaeRS TCS) [µM] | IC90 (SaeRS TCS) [µM] | inhibition of phosphotransferase (PT) activity [4] | growth of S. aureus (S. aureus USA300 [5]) | visible toxicity to HeLa cells (HeLa cells [6]) | level of sarA transcription [7] | bacterial burden compared to the vehicle control (S. aureus USA300 [9]) | IC50 [10] [µM] | IC50 (AgrC) [µM] | also measured
CC(C)=CCC/C(C)=C/Cc1c(O)ccc(C(=O)/C=C/c2ccc(O)cc2)c1O [xanthoangelol] | did not show inhibitory activity | shown to have an antibacterial activity |  |  |  |  |  |  |  |  |  |  |  |  |  |  |  |  |  | absorption and distribution after oral administration [1]: absorbed and distributed rapidly; absorption efficiency [1]: low
COc1ccc(C(=O)/C=C/c2ccc(O)cc2)c(O)c1C/C=C(\C)CCC=C(C)C [xanthoangelol F, reference compound] | did not show inhibitory activity |  |  |  |  |  |  |  |  |  |  |  |  |  |  |  |  |  |  | 
4-hydroxyderricin |  | shown to have an antibacterial activity |  |  |  |  |  |  |  |  |  |  |  |  |  |  |  |  |  | 
C=C(C)C(O)CC/C(C)=C/Cc1c(O)ccc(C(=O)/C=C/c2ccc(O)cc2)c1O (centres unmarked) [Compound 1, Xanthoangelol B] |  |  | 10 | 19.7 | 4.62 | visible protection | comparable level of protection to that of saeS knockout mutants | 4.6 | 40 | excellent inhibitory activity | 2.1 | 8 | no inhibition was observed | severely inhibited | did not produce substantially visible toxicity | not significantly affected | sharp decrease | 220 | 339 | bacterial growth (S. aureus USA300 [5]; at up to 8 μM): did not disrupt bacterial growth; concentration from which growth inhibition started (S. aureus USA300 [5]; growth followed up to 20 h): ≥ 16 µM; survival rate of G. mellonella infected with the knockout strain (saeS knockout S. aureus; 2.042 mg/kg body weight every 12 h for 72 h): 70%; reduction in CFU compared to the wild type infection group (saeS knockout S. aureus; 2.042 mg/kg): 76.8%; survival compared to the vehicle control (S. aureus USA300 [8]; 2.0 mg/kg every 12 h): 3.5 fold; survival (S. aureus USA300 [8]; 3.1 mg/kg every 12 h): 90%; survival (S. aureus USA300 [8]; 4.1 mg/kg every 12 h): complete survival; decline of bacterial burden (S. aureus USA300 [9]; 4.1 mg/kg): 1.72 log10 CFU/worm; lower activity for AgrC compared to that for SaeS (AgrC): 1.5 fold
C=C(C)C(O)CC/C(C)=C/Cc1c(O)ccc(C(=O)CC(O)c2ccc(O)cc2)c1O (centres unmarked) [PM-56, 1-(2,4-Dihydroxy-3-(6-hydroxy-3,7-dimethylocta-2,7-dien-1-yl)phenyl)-3-hydroxy-3-(4-hydroxyphenyl)propan-1-one] |  |  | 7 | 28.9 | 3.97 | visible protection | comparable level of protection to that of saeS knockout mutants | 4 | 6.8 | excellent inhibitory activity | 4.3 | 10 | no inhibition was observed | comparable growth to the control | did not produce substantially visible toxicity | not significantly affected | sharp decrease | 160 | 140 | binding to SaeS by 1D CPMG and 1D STD NMR [11]: specifically binds to SaeS; bacterial growth (S. aureus USA300 [5]; at up to 16 μM): did not disrupt bacterial growth; survival rate of G. mellonella infected with the knockout strain (saeS knockout S. aureus; 2.131 mg/kg body weight every 12 h for 72 h): 90%; reduction in CFU compared to the wild type infection group (saeS knockout S. aureus; 2.131 mg/kg): 83.3%; survival compared to the vehicle control (S. aureus USA300 [8]; 2.1 mg/kg every 12 h): 3.5 fold; survival (S. aureus USA300 [8]; 3.2 mg/kg every 12 h): 90%; survival (S. aureus USA300 [8]; 4.3 mg/kg every 12 h): complete survival; decline of bacterial burden (S. aureus USA300 [9]; 4.3 mg/kg): 1.84 log10 CFU/worm; higher activity than 1 for SaeS [10]: 1.4 fold; higher activity than 1 for AgrC (AgrC): 2.4 fold
